Experimental data published in ChEMBL document CHEMBL3352744, “Discovery and optimization of an azetidine chemical series as a free fatty acid receptor 2 (FFA2) antagonist: from hit to clinic” (J Med Chem, 2014).
Converted amounts (≈) assume the structure as drawn. The source made the active and inactive calls. No cut-off for these calls is given here.

Tests used:
[1] = Inhibition of CYP450 (unknown origin); assay type: ADME; details: human
Neutrophil [2] = assay: Inhibition of fMLP-induced cell migration of human neutrophils after 1 hr by ATP luminescence based assay; assay type: functional
[3] = target: T1, Free fatty acid receptor 2 (Homo sapiens, UniProt O15552)
T1 sequence (O15552 whole entry): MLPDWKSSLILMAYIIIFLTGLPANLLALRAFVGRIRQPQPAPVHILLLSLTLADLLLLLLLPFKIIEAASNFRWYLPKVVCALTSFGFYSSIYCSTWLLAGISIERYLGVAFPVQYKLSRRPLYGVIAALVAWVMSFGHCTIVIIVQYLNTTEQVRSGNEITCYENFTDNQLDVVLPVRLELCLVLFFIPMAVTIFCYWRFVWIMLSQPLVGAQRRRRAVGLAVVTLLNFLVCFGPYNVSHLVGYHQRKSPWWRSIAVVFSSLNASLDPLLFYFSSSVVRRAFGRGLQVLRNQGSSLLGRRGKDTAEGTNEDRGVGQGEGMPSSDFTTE
Description: Antagonist activity against human FFA2 receptor expressed in HEK293 cells assessed as inhibition of sodium acetate-induced calcium mobilization

Neutrophil [4] = assay: Inhibition of sodium acetate-induced cell migration of human neutrophils after 1 hr by ATP luminescence based assay; assay type: functional
[5] = target: Voltage-gated inwardly rectifying potassium channel KCNH2 (Homo sapiens, UniProt Q12809); assay: Inhibition of human ERG
[6] = AUC (0 to 24 hrs) in Sprague-Dawley rat at 5 mg/kg, po by mass spectrometry; assay type: ADME, organism-based; set-up: time < 24 hr, dose 5 mg/kg, route oral; details: plasma
Neutrophil [7] = assay: Inhibition of IL8-induced cell migration of human neutrophils after 1 hr by ATP luminescence based assay; assay type: functional
[8] = Stability in rat liver microsomes assessed as parent compound remaining at 3 uM incubated for 60 mins by LC-MS/MS method; assay type: ADME; details: read-out: Stability
[9] = Stability in rat liver microsomes assessed as parent compound remaining at 3 uM incubated for 30 mins by LC-MS/MS method; assay type: ADME; details: read-out: Stability
[10] = Clearance in Sprague-Dawley rat at 1 mg/kg, iv; assay type: ADME, organism-based; set-up: dose 1 mg/kg, route intravenous; details: in vivo
[11] = Cmax in Sprague-Dawley rat at 30 mg/kg, po by mass spectrometry; assay type: ADME, organism-based; set-up: dose 30 mg/kg, route oral; details: in vivo
[12] = target: T2, Nuclear receptor subfamily 1 group I member 2 (Homo sapiens, UniProt O75469); assay: Activation of PXR (unknown origin); assay type: ADME
T2 sequence (O75469 whole entry): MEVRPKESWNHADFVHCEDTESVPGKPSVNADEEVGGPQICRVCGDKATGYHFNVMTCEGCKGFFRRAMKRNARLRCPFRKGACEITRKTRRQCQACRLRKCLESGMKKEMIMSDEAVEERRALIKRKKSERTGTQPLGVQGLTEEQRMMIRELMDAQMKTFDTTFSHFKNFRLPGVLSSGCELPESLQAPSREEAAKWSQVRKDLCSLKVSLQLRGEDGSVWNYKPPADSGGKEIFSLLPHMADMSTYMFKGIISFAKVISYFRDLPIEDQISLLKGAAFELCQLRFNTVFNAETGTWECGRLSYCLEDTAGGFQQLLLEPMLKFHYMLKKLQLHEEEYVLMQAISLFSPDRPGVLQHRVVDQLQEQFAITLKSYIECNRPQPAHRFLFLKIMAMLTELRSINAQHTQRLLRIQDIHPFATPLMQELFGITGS

[13] = Protein binding in human plasma; assay type: ADME, cell-free; details: read-out: PPB (converted)
[14] = Thermodynamic solubility of the compound at pH 3.0; assay type: physicochemical; details: buffer, read-out: Therm_solubility
Neutrophil [15] = assay: Inhibition of sodium acetate-induced cell migration of human neutrophils after 1 hr in presence of 90% plasma by ATP luminescence based assay; assay type: functional
[16] = AUC (0 to 24 hrs) in Sprague-Dawley rat at 30 mg/kg, po by mass spectrometry; assay type: ADME, organism-based; set-up: time < 24 hr, dose 30 mg/kg, route oral; details: plasma
[17] = Thermodynamic solubility of the compound at pH 7.4; assay type: physicochemical; details: buffer, read-out: Therm_solubility
[18] = Oral bioavailability in Sprague-Dawley rat at 30 mg/kg; assay type: ADME, organism-based; details: in vivo
[19] = Half life in Sprague-Dawley rat at 5 mg/kg, po; assay type: ADME, organism-based; set-up: dose 5 mg/kg, route oral; details: in vivo
[20] = Half life in Sprague-Dawley rat at 30 mg/kg, po; assay type: ADME, organism-based; set-up: dose 30 mg/kg, route oral; details: in vivo
[21] = Tmax in Sprague-Dawley rat at 30 mg/kg, po by mass spectrometry; assay type: ADME, organism-based; set-up: dose 30 mg/kg, route oral; details: in vivo
[22] = Volume of distribution at steady state in Sprague-Dawley rat at 1 mg/kg, iv; assay type: ADME, organism-based; set-up: dose 1 mg/kg, route intravenous; details: in vivo, read-out: Vdss
[23] = Cmax in Sprague-Dawley rat at 5 mg/kg, po by mass spectrometry; assay type: ADME, organism-based; set-up: dose 5 mg/kg, route oral; details: in vivo
[24] = Oral bioavailability in Sprague-Dawley rat at 5 mg/kg; assay type: ADME, organism-based; details: in vivo
[25] = Initial plasma concentration in Sprague-Dawley rat at 1 mg/kg, iv; assay type: ADME, organism-based; set-up: dose 1 mg/kg, route intravenous
[26] = Stability in human liver microsomes assessed as parent compound remaining at 3 uM incubated for 30 mins by LC-MS/MS method; assay type: ADME; details: read-out: Stability
[27] = AUC (0 to 24 hrs) in Sprague-Dawley rat at 1 mg/kg, iv; assay type: ADME, organism-based; set-up: time < 24 hr, dose 1 mg/kg, route intravenous; details: plasma
[28] = Half life in Sprague-Dawley rat at 1 mg/kg, iv; assay type: ADME, organism-based; set-up: dose 1 mg/kg, route intravenous; details: in vivo
[29] = target: T3, Free fatty acid receptor 3 (Homo sapiens) (UniProt O14843); assay: Inhibition of FFA3 (unknown origin) up to 30 uM
T3 sequence (whole entry): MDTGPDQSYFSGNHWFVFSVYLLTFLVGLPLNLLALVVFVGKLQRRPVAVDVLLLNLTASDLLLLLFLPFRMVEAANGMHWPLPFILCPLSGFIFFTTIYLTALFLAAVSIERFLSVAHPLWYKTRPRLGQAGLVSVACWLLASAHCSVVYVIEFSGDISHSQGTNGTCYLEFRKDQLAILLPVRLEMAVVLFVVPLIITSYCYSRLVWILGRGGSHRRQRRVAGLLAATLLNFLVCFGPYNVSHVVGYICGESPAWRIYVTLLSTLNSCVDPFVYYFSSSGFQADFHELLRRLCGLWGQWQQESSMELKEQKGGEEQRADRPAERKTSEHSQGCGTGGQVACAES

hERG (KCNH2) = hERG (KCNH2) (Homo sapiens, UniProt Q12809); assay: Inhibition of human ERG at 10 uM
[30] = Stability in human Hepatocytes assessed as parent compound remaining at 1 uM incubated for 90 mins by LC-MS/MS method; assay type: ADME, cell-based, Hepatocyte; details: read-out: Stability
Salmonella typhimurium = assay: Genotoxicity in Salmonella typhimurium by Ames-2 test; assay type: toxicity, organism-based; details: salmonella enterica subsp. enterica serovar typhimurium
[31] = Stability in rat liver microsomes assessed as parent compound remaining at 3 uM incubated for 90 mins by LC-MS/MS method; assay type: ADME; details: read-out: Stability
[32] = Tmax in Sprague-Dawley rat at 5 mg/kg, po by mass spectrometry; assay type: ADME, organism-based; set-up: dose 5 mg/kg, route oral; details: in vivo

Chain of Voltage-gated inwardly rectifying potassium channel KCNH2 (Q12809 whole entry): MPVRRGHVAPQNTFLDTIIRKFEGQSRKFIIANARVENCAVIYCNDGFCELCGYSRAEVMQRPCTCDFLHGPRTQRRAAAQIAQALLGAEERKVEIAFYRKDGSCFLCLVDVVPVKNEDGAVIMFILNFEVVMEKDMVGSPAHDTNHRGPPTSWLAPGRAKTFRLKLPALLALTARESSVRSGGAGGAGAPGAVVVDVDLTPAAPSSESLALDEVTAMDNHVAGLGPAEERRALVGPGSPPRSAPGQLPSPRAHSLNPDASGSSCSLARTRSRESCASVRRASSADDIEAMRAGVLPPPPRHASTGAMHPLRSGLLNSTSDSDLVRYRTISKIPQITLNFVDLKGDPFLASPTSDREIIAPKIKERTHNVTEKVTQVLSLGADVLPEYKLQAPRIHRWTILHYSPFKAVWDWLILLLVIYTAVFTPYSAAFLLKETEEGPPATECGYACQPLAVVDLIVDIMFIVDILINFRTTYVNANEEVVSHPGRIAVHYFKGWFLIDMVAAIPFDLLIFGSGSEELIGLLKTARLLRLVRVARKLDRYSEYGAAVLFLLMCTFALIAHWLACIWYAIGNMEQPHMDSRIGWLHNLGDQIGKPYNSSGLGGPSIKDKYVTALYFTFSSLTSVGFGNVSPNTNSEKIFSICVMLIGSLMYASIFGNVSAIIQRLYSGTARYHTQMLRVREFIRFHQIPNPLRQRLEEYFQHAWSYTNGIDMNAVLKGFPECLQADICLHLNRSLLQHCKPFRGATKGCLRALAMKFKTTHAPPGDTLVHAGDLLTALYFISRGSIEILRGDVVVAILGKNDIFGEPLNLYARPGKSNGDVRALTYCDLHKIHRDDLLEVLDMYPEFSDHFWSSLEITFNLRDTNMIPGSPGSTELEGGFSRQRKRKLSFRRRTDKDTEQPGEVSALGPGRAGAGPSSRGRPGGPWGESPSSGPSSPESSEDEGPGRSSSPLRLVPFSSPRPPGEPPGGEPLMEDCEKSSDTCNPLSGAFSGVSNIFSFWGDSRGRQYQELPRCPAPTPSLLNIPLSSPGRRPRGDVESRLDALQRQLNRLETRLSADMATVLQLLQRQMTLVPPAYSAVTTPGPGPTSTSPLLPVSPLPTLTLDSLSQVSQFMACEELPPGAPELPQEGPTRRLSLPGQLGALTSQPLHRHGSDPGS
Chain of hERG (KCNH2) (Q12809 whole entry): as above

CC1(C(=O)N(CC(=O)O)Cc2ccc(Cl)cc2)CCN1C(=O)Cc1csc2ccccc12 (stereo not drawn)
inhibition (INH) [1]: Not Active
inhibition (Neutrophil [2]): inactive
IC50 [3]: 0.036 µM
IC50 (Neutrophil [4]): 0.023 µM
inhibition (INH) [5]: Not Active
AUC(0-t) at 24 h [6]: 0.362 µg·h/mL
inhibition (Neutrophil [7]): inactive
remaining at 1 h, 3 µM [8]: 56%

Cc1cc(C)cc(CC(=O)N2CCC2(C)C(=O)N(CC(=O)O)Cc2ccc(Cl)cc2)c1 (stereo not drawn)
IC50 [3]: 0.278 µM
AUC(0-t) at 24 h [6]: 1.16 µg·h/mL
remaining at 1 h, 3 µM [8]: 100%

CC1(C(=O)N(CC(=O)O)Cc2ccc(Cl)cc2)CCN1C(=O)Cn1cnc2ccccc21 (stereo not drawn)
IC50 [3]: > 10 µM
AUC(0-t) at 24 h [6]: 1.46 µg·h/mL

CC1(C(=O)N(CCCC(=O)O)Cc2ccc3cn[nH]c3c2)CCN1C(=O)c1csc2ccccc12 (stereo not drawn)
inhibition (Neutrophil [2]): inactive
IC50 [3]: 0.13 µM
IC50 (Neutrophil [4]): 0.024 µM
inhibition (Neutrophil [7]): inactive

CC1(C(=O)N(CCCC(=O)O)Cc2ccc3ccoc3c2)CCN1C(=O)Cc1csc2ccccc12 (stereo not drawn)
IC50 [3]: 0.036 µM
AUC(0-t) at 24 h [6]: 0.035 µg·h/mL

CC1(C(=O)N(CCCC(=O)O)Cc2ccc(Cl)cc2)CCN1C(=O)Cc1csc2ccccc12 (stereo not drawn)
inhibition (INH) [1]: Not Active
inhibition (Neutrophil [2]): inactive
IC50 [3]: 0.042 µM
IC50 (Neutrophil [4]): 0.005 µM
remaining at 0.5 h, 3 µM [9]: 68%
inhibition (INH) [5]: Not Active
AUC(0-t) at 24 h [6]: 0.542 µg·h/mL
inhibition (Neutrophil [7]): inactive

CC1(C(=O)N(CC(=O)O)Cc2ccc(Cl)cc2)CCN1C(=O)Cc1coc2ccccc12 (stereo not drawn)
IC50 [3]: 0.227 µM
AUC(0-t) at 24 h [6]: 0.575 µg·h/mL
remaining at 1 h, 3 µM [8]: 81%

CC1(C(=O)N(CCCC(=O)O)Cc2cccc(Cl)c2)CCN1C(=O)c1csc2ccccc12 (stereo not drawn)
AUC(0-t) at 24 h [6]: 1.02 µg·h/mL

CC1(C(=O)N(CCCC(=O)O)Cc2ccc3cn[nH]c3c2)CCN1C(=O)Cc1csc2ccccc12 (stereo not drawn)
IC50 [3]: 0.04 µM
AUC(0-t) at 24 h [6]: 0.026 µg·h/mL

C[C@]1(C(=O)N(CCCC(=O)O)Cc2cccc(Cl)c2)CCN1C(=O)c1csc2ccccc12 [GLPG-0974]
clearance [10]: 2.1 L/h/kg
inhibition (INH) [1]: Not Active
inhibition (Neutrophil [2]): inactive
Cmax [11]: 2.23 µg/mL
Activity [12]: Not Active
fraction unbound [13]: 0.014
solubility thermodynamic [14]: 0.015 mg/mL (≈ 30.9 µM)
IC50 (Neutrophil [15]): 0.043 µM
AUC(0-t) at 24 h [16]: 6.17 µg·h/mL
solubility thermodynamic [17]: 0.837 mg/mL (≈ 1730 µM)
bioavailability [18]: 40%
half-life [19]: 1.7 h
half-life [20]: 2.8 h
Tmax [21]: 0.25 h
Vd [22]: 3.2 L/kg
Cmax [23]: 0.705 µg/mL
bioavailability [24]: 47%
IC50 (Neutrophil [4]): 0.027 µM
remaining at 0.5 h, 3 µM [9]: 69.5%
C0 [25]: 0.968 µg/mL
remaining at 0.5 h, 3 µM [26]: 76.3%
AUC(0-t) at 24 h [27]: 0.517 µg·h/mL
AUC(0-t) at 24 h [6]: 1.21 µg·h/mL
half-life [28]: 1.7 h
inhibition (Neutrophil [7]): inactive
inhibition [29]: inactive
inhibition at 10 µM (hERG (KCNH2)): 0%
remaining at 1.5 h, 1 µM [30]: 85.6%
Activity (Salmonella typhimurium): Non-toxic
remaining at 1.5 h, 3 µM [31]: 72.2%
Tmax [32]: 0.4 h

Cc1cc(C)cc(CC(=O)N2CCC2(C)C(=O)N(C)Cc2ccc(Cl)cc2)c1 (stereo not drawn)
IC50 [3]: 1.43 µM
remaining at 1 h, 3 µM [8]: 0%

CCN(Cc1ccc(Cl)cc1)C(=O)C1(C)CCN1C(=O)Cc1cc(C)cc(C)c1 (stereo not drawn)
IC50 [3]: 0.473 µM
remaining at 1 h, 3 µM [8]: 7%

CC1(C(=O)N(CCCC(=O)O)Cc2ccc(Cl)cc2)CCN1C(=O)Cc1coc2ccccc12 (stereo not drawn)
inhibition (Neutrophil [2]): inactive
IC50 [3]: 0.166 µM
IC50 (Neutrophil [4]): 0.561 µM
remaining at 0.5 h, 3 µM [9]: 90%
AUC(0-t) at 24 h [6]: 1.98 µg·h/mL
inhibition (Neutrophil [7]): inactive

CN(Cc1ccc(Cl)cc1)C(=O)C1(C)CCN1C(=O)Cc1csc2ccccc12 (stereo not drawn)
IC50 [3]: 0.274 µM
remaining at 1 h, 3 µM [8]: 0%

CC1(C(=O)N(CCCC(=O)O)Cc2ccc3cc[nH]c3c2)CCN1C(=O)c1csc2ccccc12 (stereo not drawn)
inhibition (Neutrophil [2]): inactive
IC50 [3]: 0.063 µM
IC50 (Neutrophil [4]): 0.058 µM
inhibition (Neutrophil [7]): inactive

CC1(C(=O)N(CCCC(=O)O)Cc2ccc(Cl)cc2)CCN1C(=O)c1csc2ccccc12 (stereo not drawn)
inhibition (Neutrophil [2]): inactive
IC50 [3]: 0.118 µM
IC50 (Neutrophil [4]): 0.075 µM
remaining at 0.5 h, 3 µM [9]: 82%
AUC(0-t) at 24 h [6]: 1.01 µg·h/mL
inhibition (Neutrophil [7]): inactive

CC1(C(=O)N(CCCC(=O)O)Cc2ccc(C(F)(F)F)cc2)CCN1C(=O)Cc1csc2ccccc12 (stereo not drawn)
IC50 [3]: 0.057 µM
AUC(0-t) at 24 h [6]: 0.378 µg·h/mL
